Columns and labels:
hNaV1.6 = molecular target: T1, hNaV1.6 (Homo sapiens, UniProt Q9UQD0); assay: Automated patch-clamp and photoactivation, hNaV1.6 current in HEK293 cells; format: cell-based
T1 construct: expressed in transfected cells

hNaV1.2 = molecular target: T2, hNaV1.2 (Homo sapiens, UniProt Q99250); assay: Automated patch-clamp and photoactivation, hNaV1.2 current in HEK293 cells; format: cell-based; settings: 1 nM, 365 nm, 45 mW/cm^2
T2 construct: expressed in transfected cells

zebrafish larvae = assay: Zebrafish larvae paralysis model; format: in vivo; settings: injected, then illumination
hERG = hERG (Homo sapiens, UniProt Q12809); assay: Automated patch-clamp with photocontrol, hERG current in CHO cells; settings: 100 nM; 365 nm, 45 mW/cm^2
[1] = molecular target: human NaV1.6 channel (human) (UniProt Q9UQD0); assay: cell-based or functional assay
[2] = molecular target: human NaV1.2 channel (human) (UniProt Q99250); assay: cell-based or functional assay
[3] = molecular target: human NaV1.1 channel (human) (UniProt P35498); assay: cell-based or functional assay
[4] = system: nicotinic acetylcholine receptors (nAChR); settings: cited from earlier work
KCa1.1/KCNMA1 = KCa1.1/KCNMA1 (Homo sapiens, UniProt Q12791); settings: cited from earlier work
Kv1.2/KCNA2 = Kv1.2/KCNA2 (Homo sapiens, UniProt P16389); settings: cited from earlier work
Kv1.6/KCNA6 = Kv1.6/KCNA6 (Homo sapiens, UniProt P17658); settings: cited from earlier work
shaker = shaker (Drosophila melanogaster, UniProt P08510); settings: cited from earlier work
Kv1.3/KCNA3 = Kv1.3/KCNA3 (Homo sapiens, UniProt P22001); settings: cited from earlier work
Kv1.5/KCNA5 = Kv1.5/KCNA5 (Homo sapiens, UniProt P22460); settings: cited from earlier work
KV1.2 = molecular target: T3, KV1.2 (Homo sapiens, UniProt P16389); assay: Automated patch-clamp with photocontrol, KV1.2 current in CHO cells; format: cell-based; settings: 100 nM; 365 nm, 45 mW/cm^2
T3 construct: expressed in transfected cells; host or cells: CHO (transient)
T3 sequence (P16389 whole entry): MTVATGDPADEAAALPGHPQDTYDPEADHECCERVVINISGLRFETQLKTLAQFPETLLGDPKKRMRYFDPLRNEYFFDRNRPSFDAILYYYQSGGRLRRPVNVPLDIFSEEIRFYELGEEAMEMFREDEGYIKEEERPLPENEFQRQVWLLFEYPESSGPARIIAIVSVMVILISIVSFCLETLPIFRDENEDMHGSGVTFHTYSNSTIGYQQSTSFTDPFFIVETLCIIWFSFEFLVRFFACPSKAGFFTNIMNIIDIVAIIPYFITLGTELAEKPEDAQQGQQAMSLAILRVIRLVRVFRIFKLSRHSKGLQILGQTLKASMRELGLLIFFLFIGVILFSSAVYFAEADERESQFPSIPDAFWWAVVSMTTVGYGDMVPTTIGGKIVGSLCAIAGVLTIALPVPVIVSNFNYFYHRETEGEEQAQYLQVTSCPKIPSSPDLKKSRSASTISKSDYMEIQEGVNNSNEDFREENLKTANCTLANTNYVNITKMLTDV

T1 sequence (Q9UQD0 whole entry): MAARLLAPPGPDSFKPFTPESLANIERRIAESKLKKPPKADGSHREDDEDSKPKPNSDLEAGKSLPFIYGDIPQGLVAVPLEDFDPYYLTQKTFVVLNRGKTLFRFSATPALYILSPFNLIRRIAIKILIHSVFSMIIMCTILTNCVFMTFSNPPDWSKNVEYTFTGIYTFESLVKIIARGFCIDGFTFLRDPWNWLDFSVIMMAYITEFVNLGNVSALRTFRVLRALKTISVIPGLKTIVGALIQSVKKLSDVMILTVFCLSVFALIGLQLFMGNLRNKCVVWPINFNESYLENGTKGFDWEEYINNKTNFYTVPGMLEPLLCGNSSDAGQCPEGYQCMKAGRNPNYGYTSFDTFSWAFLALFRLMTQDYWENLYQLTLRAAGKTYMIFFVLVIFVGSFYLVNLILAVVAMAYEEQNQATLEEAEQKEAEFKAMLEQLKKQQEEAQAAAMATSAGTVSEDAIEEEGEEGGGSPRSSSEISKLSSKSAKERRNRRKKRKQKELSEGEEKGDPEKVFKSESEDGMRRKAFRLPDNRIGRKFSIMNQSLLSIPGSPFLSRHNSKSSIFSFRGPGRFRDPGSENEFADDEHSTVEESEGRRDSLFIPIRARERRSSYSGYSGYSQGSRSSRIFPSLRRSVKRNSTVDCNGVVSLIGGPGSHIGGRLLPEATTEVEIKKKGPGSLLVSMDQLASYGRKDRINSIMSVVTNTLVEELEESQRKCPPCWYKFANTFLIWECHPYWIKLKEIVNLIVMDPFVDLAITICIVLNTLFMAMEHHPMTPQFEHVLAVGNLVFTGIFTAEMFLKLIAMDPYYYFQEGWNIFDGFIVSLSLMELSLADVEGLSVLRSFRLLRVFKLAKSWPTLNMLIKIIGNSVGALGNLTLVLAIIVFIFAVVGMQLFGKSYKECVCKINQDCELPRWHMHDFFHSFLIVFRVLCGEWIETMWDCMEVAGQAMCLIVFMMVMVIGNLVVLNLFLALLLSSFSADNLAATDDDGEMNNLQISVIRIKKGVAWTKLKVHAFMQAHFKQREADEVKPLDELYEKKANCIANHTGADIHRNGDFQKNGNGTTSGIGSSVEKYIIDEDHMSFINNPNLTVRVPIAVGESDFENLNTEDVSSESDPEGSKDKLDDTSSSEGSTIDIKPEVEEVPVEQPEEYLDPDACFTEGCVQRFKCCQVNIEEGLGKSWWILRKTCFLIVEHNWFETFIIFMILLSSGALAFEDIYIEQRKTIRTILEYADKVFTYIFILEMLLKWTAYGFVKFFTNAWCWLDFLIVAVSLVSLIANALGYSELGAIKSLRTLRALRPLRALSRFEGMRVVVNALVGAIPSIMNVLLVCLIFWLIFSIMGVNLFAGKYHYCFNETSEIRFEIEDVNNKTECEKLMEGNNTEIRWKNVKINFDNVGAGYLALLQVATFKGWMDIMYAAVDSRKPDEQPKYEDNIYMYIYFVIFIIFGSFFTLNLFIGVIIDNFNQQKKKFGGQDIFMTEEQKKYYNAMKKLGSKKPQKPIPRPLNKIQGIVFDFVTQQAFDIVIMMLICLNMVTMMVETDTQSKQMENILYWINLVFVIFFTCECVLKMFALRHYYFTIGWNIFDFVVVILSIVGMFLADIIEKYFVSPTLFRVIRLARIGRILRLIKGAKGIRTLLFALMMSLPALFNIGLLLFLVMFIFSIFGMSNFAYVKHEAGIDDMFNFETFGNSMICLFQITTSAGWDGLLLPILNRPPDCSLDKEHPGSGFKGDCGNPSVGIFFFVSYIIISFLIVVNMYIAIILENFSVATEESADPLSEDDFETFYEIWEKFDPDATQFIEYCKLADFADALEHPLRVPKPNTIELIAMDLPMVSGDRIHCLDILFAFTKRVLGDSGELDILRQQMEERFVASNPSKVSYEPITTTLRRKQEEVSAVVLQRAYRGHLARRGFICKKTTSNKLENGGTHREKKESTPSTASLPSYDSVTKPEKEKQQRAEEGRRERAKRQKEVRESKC
T2 sequence (Q99250 whole entry): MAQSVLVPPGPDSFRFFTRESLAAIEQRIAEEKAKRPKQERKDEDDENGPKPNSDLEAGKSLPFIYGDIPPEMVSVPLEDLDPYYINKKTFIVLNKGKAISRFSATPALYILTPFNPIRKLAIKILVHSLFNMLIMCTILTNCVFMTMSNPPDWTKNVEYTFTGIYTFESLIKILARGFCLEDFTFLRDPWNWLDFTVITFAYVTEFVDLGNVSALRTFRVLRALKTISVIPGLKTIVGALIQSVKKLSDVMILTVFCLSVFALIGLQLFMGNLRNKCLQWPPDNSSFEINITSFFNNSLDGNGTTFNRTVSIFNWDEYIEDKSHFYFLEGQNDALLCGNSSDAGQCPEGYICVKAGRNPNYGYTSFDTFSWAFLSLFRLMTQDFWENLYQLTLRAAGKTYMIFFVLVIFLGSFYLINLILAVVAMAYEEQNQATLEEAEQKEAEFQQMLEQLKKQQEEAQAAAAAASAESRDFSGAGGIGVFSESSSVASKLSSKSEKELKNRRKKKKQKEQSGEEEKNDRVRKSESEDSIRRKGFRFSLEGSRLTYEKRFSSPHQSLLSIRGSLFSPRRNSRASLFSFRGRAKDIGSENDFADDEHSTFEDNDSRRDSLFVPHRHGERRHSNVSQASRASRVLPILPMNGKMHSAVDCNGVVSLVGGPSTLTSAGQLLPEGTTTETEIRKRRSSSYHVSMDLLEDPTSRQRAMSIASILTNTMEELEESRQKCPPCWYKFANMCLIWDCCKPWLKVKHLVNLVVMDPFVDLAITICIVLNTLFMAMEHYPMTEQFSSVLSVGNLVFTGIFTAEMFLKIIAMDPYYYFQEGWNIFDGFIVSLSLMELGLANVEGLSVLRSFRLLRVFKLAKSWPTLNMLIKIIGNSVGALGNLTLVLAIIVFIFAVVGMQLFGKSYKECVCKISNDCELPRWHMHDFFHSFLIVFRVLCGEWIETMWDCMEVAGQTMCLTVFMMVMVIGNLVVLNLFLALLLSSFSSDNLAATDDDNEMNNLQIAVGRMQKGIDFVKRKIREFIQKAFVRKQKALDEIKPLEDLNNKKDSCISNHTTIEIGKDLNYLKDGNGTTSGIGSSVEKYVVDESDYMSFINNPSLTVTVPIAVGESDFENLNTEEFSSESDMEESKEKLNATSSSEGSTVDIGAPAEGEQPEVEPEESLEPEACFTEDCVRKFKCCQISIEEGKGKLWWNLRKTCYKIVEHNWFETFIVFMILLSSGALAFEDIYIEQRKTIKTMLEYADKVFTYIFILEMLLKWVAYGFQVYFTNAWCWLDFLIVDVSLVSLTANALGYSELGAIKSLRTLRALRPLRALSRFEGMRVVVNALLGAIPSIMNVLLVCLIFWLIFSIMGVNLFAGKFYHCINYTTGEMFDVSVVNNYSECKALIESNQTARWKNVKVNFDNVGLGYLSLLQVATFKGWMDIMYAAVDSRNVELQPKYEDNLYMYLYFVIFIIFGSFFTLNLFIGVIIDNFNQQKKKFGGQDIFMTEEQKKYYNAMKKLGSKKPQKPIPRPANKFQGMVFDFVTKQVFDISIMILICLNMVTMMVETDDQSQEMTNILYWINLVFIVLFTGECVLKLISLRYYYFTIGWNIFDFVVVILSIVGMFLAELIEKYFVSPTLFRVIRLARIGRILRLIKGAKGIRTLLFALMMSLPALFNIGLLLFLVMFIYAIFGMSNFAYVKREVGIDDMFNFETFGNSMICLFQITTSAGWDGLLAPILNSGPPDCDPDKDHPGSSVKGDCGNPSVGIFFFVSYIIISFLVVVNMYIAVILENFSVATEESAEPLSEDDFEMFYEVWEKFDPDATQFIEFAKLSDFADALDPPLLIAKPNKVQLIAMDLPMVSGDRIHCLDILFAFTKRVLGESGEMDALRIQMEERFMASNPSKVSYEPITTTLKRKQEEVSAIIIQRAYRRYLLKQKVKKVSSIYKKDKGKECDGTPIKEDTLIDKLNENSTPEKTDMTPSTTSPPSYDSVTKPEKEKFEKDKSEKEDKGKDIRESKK
Chain of human NaV1.6 channel (human) (Q9UQD0 whole entry): as the sequence (Q9UQD0 whole entry) above
Chain of Kv1.3/KCNA3 (P22001 whole entry): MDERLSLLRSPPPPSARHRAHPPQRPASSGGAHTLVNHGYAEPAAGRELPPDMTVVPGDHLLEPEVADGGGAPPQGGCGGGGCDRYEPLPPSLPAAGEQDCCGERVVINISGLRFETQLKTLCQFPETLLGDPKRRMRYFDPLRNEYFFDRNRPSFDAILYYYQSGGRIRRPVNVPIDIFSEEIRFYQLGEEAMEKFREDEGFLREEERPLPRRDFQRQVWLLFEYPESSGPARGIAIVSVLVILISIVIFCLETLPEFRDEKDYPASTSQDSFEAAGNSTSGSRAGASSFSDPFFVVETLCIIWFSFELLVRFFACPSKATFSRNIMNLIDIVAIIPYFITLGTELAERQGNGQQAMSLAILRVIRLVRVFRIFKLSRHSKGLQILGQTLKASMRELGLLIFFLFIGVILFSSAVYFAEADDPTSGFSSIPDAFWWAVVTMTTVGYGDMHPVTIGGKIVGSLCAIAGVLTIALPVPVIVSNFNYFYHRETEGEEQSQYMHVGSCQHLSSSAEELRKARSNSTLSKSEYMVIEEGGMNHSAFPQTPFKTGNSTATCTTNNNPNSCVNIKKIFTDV
Chain of Kv1.2/KCNA2 (P16389 whole entry): as the sequence (P16389 whole entry) above

CC[C@H](C)[C@@H]1NC(=O)CNC(=O)[C@H](CC(C)C)NC(=O)[C@@H](NC(=O)CN)CSSC[C@@H]2NC(=O)[C@@H]3CSSC[C@@H](C(=O)N[C@@H](CCCCN)C(=O)N[C@@H](Cc4ccc(O)cc4)C(=O)N[C@@H](CCC(N)=O)C(=O)N[C@H](C(=O)N[C@@H](CCCCN)C(N)=O)[C@@H](C)CC)NC(=O)[C@H](Cc4c[nH]c5ccccc45)NC(=O)[C@H](CCCNC(=N)N)NC(=O)[C@H]([C@@H](C)O)NC(=O)[C@H](CCCCN)NC(=O)[C@H](CCCNC(=N)N)NC(=O)[C@H](CO)NC(=O)[C@H](CSSC[C@H](NC(=O)[C@H](C)NC(=O)[C@H](CCCCN)NC(=O)[C@H](Cc4ccccc4)NC1=O)C(=O)N[C@@H](CC(N)=O)C(=O)N1CCC[C@H]1C(=O)N[C@@H](CO)C(=O)N[C@@H](CC(N)=O)C(=O)N[C@@H](CC(=O)O)C(=O)N[C@@H](CCC(N)=O)C(=O)N3)NC(=O)[C@H](C(C)C)NC(=O)[C@H](CC(C)C)NC(=O)[C@H](CCCCN)NC(=O)[C@H](CO)NC(=O)[C@H](CO)NC(=O)[C@H](CCCCN)NC2=O [uncaged HwTxIV-Nvoc]
IC50 (hNaV1.6; FIG. 2a / FIG. 3f series, caged vs non-caged vs uncaged, holding −100 mV, read-out: IC50 NaV1.6 current inhibition): 15.2 nM

AaHII-R^62K-Nvoc: Nvoc-grafted analogue of AaHII wherein Arg62 was replaced by Lys62
UV-dependent effect on hNaV1.2 current after uncaging (hNaV1.2): slowing of inactivation
UV-dependent effect on hNaV1.2 current after uncaging (hNaV1.2; listed as AaHIIR^62K-Nvoc): activation
Paralysis of zebrafish larvae after illumination (zebrafish larvae): paralysis in all larvaes

BeKm1-Nvoc: BeKm1 (hERG blocker) caged with a Nvoc protecting group (RPTDIKCSESYQCFPVCKSRFGKTNGRCVNGFCDCF)
Effect of Nvoc photolysis by-product on NaV1.6 (hNaV1.6; by-product from uncaging 100 nM, negative control): inert
UV-dependent effect on hERG current after uncaging (hERG): block

HwTxIV analog (HwTxIVG^1G^4K^36) (peptide)
IC50 of NaV1.6 current inhibition [1]: 22.4 nM
IC50 of hNaV1.2 current inhibition [2]: 3.23 nM
IC50 of hNaV1.1 current inhibition [3]: 3.6 nM

QFTNVSCTTSKECWSVCQRLHNTSRGKCMNKKCRCYS [Charybdotoxin]
Interaction with nicotinic acetylcholine receptors [4]: weak interaction
IC50 (KCa1.1/KCNMA1): 5.9 nM
Inhibition of Kv1.2/KCNA2 (Kv1.2/KCNA2): nanomolar range
Ki (Kv1.6/KCNA6): 22 nM
Ki (shaker): 227 nM
Inhibition of Kv1.3/KCNA3 (Kv1.3/KCNA3): nanomolar range
Kd (Kv1.5/KCNA5): > 100 nM

charybdotoxin-Nvoc
UV-dependent effect on KV1.2 current after uncaging (KV1.2): block
